Results as given in ChEMBL document CHEMBL1201862, “PubChem BioAssay data set” (2004).
Calls of active or inactive are those of the source.

Columns and labels:
[1] = NIH-3T3 fibroblast cytotoxicity, dose response, cytotoxicity control, cell-based, fluorescence, Alamar Blue, secondary assay (AID 2327); assay type: functional;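 also: NIH-3T3 mouse fibroblasts cultured with fluconazole at 8 µg/mL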
BJ [2] = test: BJ-TERT-LT-ST fibroblast viability loss – cell-based, RAS-independent, luminescence, dose response (AID 1935); assay type: functional; conditions: Homo sapiens;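 also: BJ fibroblasts immortalized with TERT plus LT and ST oncogenes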
BJ [3] = test: cells; assay type: functional, cell-based; conditions: Homo sapiens
[4] = alpha-synuclein stem-loop luciferase translation blockers – H4 neuroglioma cells, luminescence, confirmation (AID 1988); assay type: functional, cell-based
[5] = luciferase reporter signal suppression in cells – H4 neuroglioma cells, luminescence, dose response (AID 1990); assay type: functional, cell-based
INS1 = test: INS-1E survival protection against cytokine death – cell-based, luminescence, retest, dose response (AID 449756); assay type: functional; conditions: Rattus norvegicus;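 also: cell death triggered by IL-1 beta plus TNF-alpha plus IFN-gamma mixture; protective hits raise ATP signal compared with cytokine alone wells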
[6] = fluconazole-exposed Candida albicans growth modulators – fluorescence, retest, confirmation (AID 2467); assay type: functional, cell-based
[7] = Luminescence Cell-Based Dose Response HTS to Identify Inhibitors of 5'UTR Stem-Loop Driven Prion Protein mRNA Translation in H4 Neuroglioblastoma Cells. [Related pubchem assays: 1827 (Project Summary), 1813 (Primary HTS)]; assay type: functional
BJ [8] = test: BJ-TERT fibroblast viability loss – cell-based, RAS-independent, luminescence, dose response (AID 1933); assay type: functional; conditions: Homo sapiens
[9] = DRD fibroblast viability loss – cell-based, non-viral oncogenic, luminescence, dose response (AID 1934); assay type: functional; conditions: Homo sapiens
Aminopeptidase N = target: T1, Aminopeptidase N (Plasmodium falciparum FcB1/Columbia, UniProt O96935); test: malaria alanyl aminopeptidase activity blockers – biochemical, fluorogenic H-Leu-NHMec substrate, 1536-well (AID 1445); parameters: species or system Plasmodium falciparum 3D7, 3D7
T1 sequence (O96935 whole entry): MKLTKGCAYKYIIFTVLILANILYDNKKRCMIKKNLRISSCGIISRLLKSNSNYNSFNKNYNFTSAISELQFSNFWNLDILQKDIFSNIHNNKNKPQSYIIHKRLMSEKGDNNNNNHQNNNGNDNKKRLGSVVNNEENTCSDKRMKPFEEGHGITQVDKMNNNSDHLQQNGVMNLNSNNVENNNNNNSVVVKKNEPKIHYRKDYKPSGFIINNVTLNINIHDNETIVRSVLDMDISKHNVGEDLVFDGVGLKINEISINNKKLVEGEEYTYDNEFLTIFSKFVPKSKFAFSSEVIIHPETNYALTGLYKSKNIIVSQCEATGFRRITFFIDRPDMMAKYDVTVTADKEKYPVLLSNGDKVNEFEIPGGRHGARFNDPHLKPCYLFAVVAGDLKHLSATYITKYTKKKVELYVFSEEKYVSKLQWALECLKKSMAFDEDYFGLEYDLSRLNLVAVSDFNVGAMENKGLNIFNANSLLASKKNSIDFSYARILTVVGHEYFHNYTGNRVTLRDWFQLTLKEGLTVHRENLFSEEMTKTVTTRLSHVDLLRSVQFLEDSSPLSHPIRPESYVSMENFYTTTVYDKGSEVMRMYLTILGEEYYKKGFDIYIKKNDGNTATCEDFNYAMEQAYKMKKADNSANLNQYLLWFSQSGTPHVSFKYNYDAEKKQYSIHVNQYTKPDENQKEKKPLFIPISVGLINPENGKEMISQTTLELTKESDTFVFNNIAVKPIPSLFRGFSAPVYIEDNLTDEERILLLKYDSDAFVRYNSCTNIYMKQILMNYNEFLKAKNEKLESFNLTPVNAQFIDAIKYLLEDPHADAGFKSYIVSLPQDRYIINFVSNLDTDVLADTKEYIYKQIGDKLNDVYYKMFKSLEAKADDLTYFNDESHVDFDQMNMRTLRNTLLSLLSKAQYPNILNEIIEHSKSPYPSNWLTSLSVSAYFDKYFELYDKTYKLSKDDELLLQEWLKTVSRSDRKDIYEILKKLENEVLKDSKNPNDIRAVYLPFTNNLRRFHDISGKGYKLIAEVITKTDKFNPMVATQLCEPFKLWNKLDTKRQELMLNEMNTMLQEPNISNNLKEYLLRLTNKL

Estrogen receptor beta = Estrogen receptor beta (Homo sapiens, UniProt Q92731);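 also: recombinant ER-beta bound to coactivator SRC1 peptide in presence of estradiol agonist; inhibitors block coactivator peptide binding and lower the FRET signal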
[10] = target: T2, Replicative DNA helicase DnaB (Mycobacterium tuberculosis, UniProt P9WMR3); test: DnaB intein splicing inhibitors, dose response, biochemical, cell-free fluorescence (AID 449749); assay type: functional
T2 sequence (P9WMR3 whole entry): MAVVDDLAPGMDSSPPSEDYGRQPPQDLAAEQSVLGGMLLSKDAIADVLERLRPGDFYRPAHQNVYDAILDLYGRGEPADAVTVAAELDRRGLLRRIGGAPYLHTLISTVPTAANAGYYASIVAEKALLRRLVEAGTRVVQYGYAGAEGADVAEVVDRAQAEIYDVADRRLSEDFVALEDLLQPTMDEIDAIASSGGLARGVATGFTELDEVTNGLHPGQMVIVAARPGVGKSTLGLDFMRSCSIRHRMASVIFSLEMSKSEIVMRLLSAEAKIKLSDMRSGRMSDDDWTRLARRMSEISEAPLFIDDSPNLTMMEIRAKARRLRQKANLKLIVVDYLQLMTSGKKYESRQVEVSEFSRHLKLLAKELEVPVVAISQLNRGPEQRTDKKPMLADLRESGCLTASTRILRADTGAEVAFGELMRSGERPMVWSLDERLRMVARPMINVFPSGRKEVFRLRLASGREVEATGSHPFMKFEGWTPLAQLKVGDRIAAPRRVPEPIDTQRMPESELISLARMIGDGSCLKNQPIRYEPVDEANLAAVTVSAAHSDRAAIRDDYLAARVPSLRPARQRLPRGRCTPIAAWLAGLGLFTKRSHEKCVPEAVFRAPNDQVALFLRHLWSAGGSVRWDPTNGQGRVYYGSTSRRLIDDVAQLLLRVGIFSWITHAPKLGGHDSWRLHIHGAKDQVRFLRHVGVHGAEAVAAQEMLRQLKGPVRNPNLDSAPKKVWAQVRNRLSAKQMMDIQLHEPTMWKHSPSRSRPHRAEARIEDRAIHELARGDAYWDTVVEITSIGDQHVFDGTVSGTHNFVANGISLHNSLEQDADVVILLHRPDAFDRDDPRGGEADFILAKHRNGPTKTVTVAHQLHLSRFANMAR

Protein RecA = target: T3, Protein RecA (Mycobacterium tuberculosis, UniProt P9WHJ3); test: Fluorescence Cell-Free Homogeneous Dose Retest to Identify Inhibitors of RecA-Intein Splicing Activity. [Related pubchem assays (depositor defined):AID2097, AID2223, AID489010, AID492950]; assay type: functional
T3 sequence (P9WHJ3 whole entry): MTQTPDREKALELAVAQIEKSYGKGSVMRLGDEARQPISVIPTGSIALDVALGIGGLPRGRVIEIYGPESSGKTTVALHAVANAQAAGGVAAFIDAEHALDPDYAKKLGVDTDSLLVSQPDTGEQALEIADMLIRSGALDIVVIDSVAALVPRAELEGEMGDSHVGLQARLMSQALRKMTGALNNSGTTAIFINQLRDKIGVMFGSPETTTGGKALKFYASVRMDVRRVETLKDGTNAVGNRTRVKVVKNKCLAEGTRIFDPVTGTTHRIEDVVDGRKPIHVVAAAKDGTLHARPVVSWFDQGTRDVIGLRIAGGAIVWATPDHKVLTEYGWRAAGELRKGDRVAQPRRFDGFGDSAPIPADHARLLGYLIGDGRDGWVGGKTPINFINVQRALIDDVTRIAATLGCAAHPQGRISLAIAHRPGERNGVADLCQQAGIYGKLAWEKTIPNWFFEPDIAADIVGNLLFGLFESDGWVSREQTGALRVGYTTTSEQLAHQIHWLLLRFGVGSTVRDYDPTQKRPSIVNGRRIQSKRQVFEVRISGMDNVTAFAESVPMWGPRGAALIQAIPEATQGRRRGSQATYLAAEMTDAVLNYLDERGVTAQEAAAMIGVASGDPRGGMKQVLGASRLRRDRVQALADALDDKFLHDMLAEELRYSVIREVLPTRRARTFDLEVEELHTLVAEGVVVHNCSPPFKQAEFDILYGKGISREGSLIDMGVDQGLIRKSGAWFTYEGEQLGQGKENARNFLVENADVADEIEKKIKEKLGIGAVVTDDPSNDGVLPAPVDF

[11] = target: Glyceraldehyde-3-phosphate dehydrogenase (Homo sapiens, UniProt P04406)
[12] = target: DNA dC->dU-editing enzyme APOBEC-3G (Homo sapiens, UniProt Q9HC16); test: Dose Response confirmation of small molecule APOBEC3G DNA Deaminase Inhibitors via a fluorescence-based single-stranded DNA deaminase assay. [Related pubchem assays (depositor defined):AID493012, AID493028]; assay type: functional
cells = assay type: functional
[13] = microbe, parasite or virus in culture; assay type: functional; conditions: Mycobacterium tuberculosis
[14] = THP-1 cell cytotoxicity, dose response, cytotoxicity control for non-replicating M. tuberculosis project (AID 489025); assay type: functional
[15] = OVCAR8 cell viability loss – plate reader, dry powder samples, PAX8 project, dose response (AID 743197); assay type: functional, cell-based; conditions: OVCAR-8
[16] = HIV-1 AD8 envelope cell-cell fusion blockers – cherry-pick, dose response (AID 652062); assay type: functional, cell-based;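 also: luciferase signal from cell-cell fusion driven by HIV-1 clade B AD8 Env; potency is for inhibitors of fusion seen as a drop in luminescence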
[17] = blockers of HIV-1 envelope-mediated cell-cell fusion – cherry-pick, dose response (AID 652057); assay type: functional, cell-based
[18] = blockers of HIV-1 ZM109 envelope-driven cell-cell fusion – HeLa effector, CEM target cells, luciferase, cherry-pick, dose response (AID 652058); assay type: functional, cell-based;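 also: luciferase signal from HIV-1 Env mediated cell-cell fusion of effector and target cells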
Paired box protein Pax-8 = Paired box protein Pax-8 (Homo sapiens, UniProt Q06710); test: PAX8 transcriptional activity inhibition in RMG-I – RMG-I cells, luciferase, cherry-pick, dose response (AID 687027); assay type: functional, cell-based;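 also: luciferase reporter driven by Pax8 target thyroperoxidase promoter measured by SteadyGlo luminescence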
Paired box protein Pax-8, sequence (Q06710 whole entry): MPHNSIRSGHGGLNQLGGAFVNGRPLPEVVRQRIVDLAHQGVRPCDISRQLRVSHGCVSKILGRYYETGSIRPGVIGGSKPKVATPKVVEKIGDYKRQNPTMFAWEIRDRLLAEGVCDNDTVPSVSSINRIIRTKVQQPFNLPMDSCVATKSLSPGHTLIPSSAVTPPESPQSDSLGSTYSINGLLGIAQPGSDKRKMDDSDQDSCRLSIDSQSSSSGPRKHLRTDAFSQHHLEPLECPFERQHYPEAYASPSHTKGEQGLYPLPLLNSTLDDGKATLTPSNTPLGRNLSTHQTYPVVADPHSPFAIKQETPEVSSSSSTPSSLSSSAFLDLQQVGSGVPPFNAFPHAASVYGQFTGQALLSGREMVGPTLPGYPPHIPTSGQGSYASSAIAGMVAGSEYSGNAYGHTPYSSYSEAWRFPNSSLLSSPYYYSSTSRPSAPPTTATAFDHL

Estrogen receptor beta, sequence (Q92731 whole entry): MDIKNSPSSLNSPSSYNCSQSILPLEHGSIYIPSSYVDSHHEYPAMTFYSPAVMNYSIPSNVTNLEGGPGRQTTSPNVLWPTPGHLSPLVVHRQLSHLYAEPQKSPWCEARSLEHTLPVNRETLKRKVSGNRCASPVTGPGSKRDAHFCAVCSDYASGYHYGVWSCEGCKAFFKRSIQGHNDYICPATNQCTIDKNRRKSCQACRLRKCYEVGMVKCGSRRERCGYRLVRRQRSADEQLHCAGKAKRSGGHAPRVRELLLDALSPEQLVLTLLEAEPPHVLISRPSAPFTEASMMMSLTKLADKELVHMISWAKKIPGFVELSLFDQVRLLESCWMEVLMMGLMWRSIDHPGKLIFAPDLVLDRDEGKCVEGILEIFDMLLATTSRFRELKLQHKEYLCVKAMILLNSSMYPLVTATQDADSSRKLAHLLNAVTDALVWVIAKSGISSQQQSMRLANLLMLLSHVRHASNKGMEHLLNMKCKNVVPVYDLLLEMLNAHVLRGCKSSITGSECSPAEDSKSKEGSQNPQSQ
Glyceraldehyde-3-phosphate dehydrogenase, sequence (P04406 whole entry): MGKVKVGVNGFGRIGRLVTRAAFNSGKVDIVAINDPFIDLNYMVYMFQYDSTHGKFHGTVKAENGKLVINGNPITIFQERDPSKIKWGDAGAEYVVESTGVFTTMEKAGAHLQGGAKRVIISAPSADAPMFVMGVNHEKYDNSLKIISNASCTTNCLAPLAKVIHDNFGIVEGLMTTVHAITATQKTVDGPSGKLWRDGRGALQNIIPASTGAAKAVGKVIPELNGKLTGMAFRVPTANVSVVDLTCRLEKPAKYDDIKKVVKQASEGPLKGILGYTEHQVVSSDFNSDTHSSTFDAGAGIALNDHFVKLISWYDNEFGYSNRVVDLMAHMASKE
DNA dC->dU-editing enzyme APOBEC-3G, sequence (Q9HC16 whole entry): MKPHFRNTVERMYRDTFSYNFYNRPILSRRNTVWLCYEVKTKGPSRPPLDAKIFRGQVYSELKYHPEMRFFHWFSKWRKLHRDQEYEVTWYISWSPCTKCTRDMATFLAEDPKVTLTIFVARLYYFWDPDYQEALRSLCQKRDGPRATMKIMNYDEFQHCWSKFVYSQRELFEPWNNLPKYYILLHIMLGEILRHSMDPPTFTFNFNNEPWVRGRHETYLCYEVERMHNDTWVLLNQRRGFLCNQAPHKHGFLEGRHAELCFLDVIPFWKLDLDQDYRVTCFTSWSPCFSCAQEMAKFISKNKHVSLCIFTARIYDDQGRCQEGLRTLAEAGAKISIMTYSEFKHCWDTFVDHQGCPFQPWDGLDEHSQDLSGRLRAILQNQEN

With COc1ccc(-[n+]2c(-c3ccccc3)cc(-c3ccccc3)cc2-c2ccccc2)cc1.[O-][Cl+3]([O-])([O-])[O-] the EC50 [1] was 40.7 µM (active), the EC50 (BJ [2]) was > 150 µM (inconclusive) and the EC50 (BJ [3]) was 14.1 µM (active). The EC50 [4] was 17.9 µM (active), the EC50 [5] was 11 µM (active) and the AC50 (INS1) was 1.33 µM (active). The EC50 [6] was 0.046 µM (active), the EC50 [7] was > 120 µM (not active) and the EC50 (BJ [8]) was 11.7 µM (inconclusive). The EC50 [9] was 14.1 µM (active).
In the case of CC(=O)NC(=S)NNC(=O)COc1ccc(Br)cc1, the IC50 (Aminopeptidase N) is reported as 2.57 µM (active).
In the case of COc1ccc(Cn2nnnc2C(c2ccccc2OC)N2CCC(C(N)=O)CC2)cc1 (centres undefined), the IC50 (Estrogen receptor beta) is reported as > 50 µM (not active).
With O=C(NC1CCCC1)C(c1ccc(F)cc1)N(Cc1ccccc1Cl)C(=O)CCl (centres undefined) the EC50 (BJ [2]) was > 150 µM (inconclusive), the EC50 (BJ [3]) was 14.8 µM (active) and the AC50 [10] was > 380 µM (inactive). The EC50 (BJ [8]) was 5.5 µM (active), the EC50 (Protein RecA) was 0.215 µM (active) and the EC50 [9] was 8.7 µM (active).
In the case of N#C/C(=C\c1c(N2CCC(C(N)=O)CC2)nc2ccccn2c1=O)S(=O)(=O)c1ccccc1, the IC50 (Estrogen receptor beta) is reported as > 50 µM (not active).
With O=C(O)c1cc(NS(=O)(=O)c2cccc3cccnc23)ccc1O the IC50 [11] was > 100 µM (not active).
In the case of O=C(NCc1cccs1)C1CCN(S(=O)(=O)c2ccccc2F)CC1, the IC50 (Aminopeptidase N) is reported as 51 µM (active).
In the case of Oc1nc(-c2ccncc2)nc2ccccc12, the IC50 [12] is reported as 44.8 µM (active).
For Cc1noc(NS(=O)(=O)c2ccc(NC(=O)CSc3nnc(-c4ccccc4)n3C3CCCCC3)cc2)c1C, the IC50 (Aminopeptidase N) was 75.9 µM (active).
In the case of CC(C)(C)NC(=O)C(=O)NNC(=O)COc1ccc(Br)cc1, the IC50 (cells) is reported as 17.9 µM (active) and the IC50 (Aminopeptidase N) is reported as 619 µM (active).
For Cc1csc(NC(=O)CSCC(=O)O)c1-c1nc2ccccc2s1, the IC50 (Aminopeptidase N) was 7.09 µM (active).
With C=C1CCC[C@]2(C)C[C@H]3OC(=O)C(CNC(C)CCCC(C)C)[C@H]3CC12 (some centres undefined) the CC50 [13] was 27 µM (active), the IC50 (cells) was 30.6 µM (active) and the CC50 [14] was 22.1 µM (active).
In the case of O=C(C[C@H]1C[C@@H]2c3cc(NS(=O)(=O)c4ccc(F)cc4)ccc3O[C@@H]2[C@@H](CO)O1)NCc1ccc(-c2ccccc2)cc1, the AC50 [15] is reported as 4 µM (active), the AC50 [16] is reported as 19.4 µM (active) and the AC50 [17] is reported as 23.1 µM (active). For the same compound, the AC50 [18] was 9.89 µM (active) and the AC50 (Paired box protein Pax-8) was 7.31 µM (active).
For COc1c(/C=N/Nc2ccc([N+](=O)[O-])cc2[N+](=O)[O-])c(C)nn1-c1ccccc1, the EC50 (BJ [2]) was > 150 µM (inconclusive), the EC50 (BJ [3]) was > 150 µM (not active) and the EC50 (BJ [8]) was 7.99 µM (active). The EC50 [9] was 15.8 µM (active).
In the case of O=C(NCCCO)c1cc(-c2ccc(Cl)cc2Cl)n[nH]1, the IC50 [11] is reported as > 10 µM (inconclusive).
